Data on three compounds can be found in patent US12194024B2, “Pharmaceutical composition of MDM2 inhibitor and use thereof for preventing and/or treating disease” (ASCENTAGE PHARMA (SUZHOU) CO., LTD., priority 2019, dated 2025).

Experiment [1] deals with MOLM-13 cells. Description: Expression of proteins in treated MOLM-13 cells. Type of experiment: cell-based, human. Conditions: for γ-H2AX expression (DNA damage): MOLM-13 cells. The text has this:
Therefore, we evaluate the protein changes involving these identified signaling pathways. […] DEC and AZA are low methylation drugs inducing low DNA methylation in cells by inhibiting the function of methyltransferase I (DNMT1). Many studies indicate that DNMT1 forms a complex with UHRF1 and HDAC1 proteins in tumor cells, which binds and inhibits the expression of various […] (such as P16INK4A, P14ARF and P21) promoters, and promotes tumor growth. Cytarabine is a pyrimidine nucleoside analogue, which induces DNA damage, further activates ATM/ATR-P53-P21 signal cascades, inhibits DNA synthesis in cells and interferes with cell proliferation.
Based on above evidences, we further detect the regulating effect of treatment with compound 2 in combination with low methylation drugs DEC and AZA or drug Ara-C on P53, demethylation marker protein DNMT1 and common target protein P21, and the expression of apoptosis marker protein, lytic PARP-1. […] RG-7388 is introduced as the comparison of present experiment. […] DNA damage further activates P53 and P21.
B-actin is used for confirming that the loaded proteins are the same. […] Its results represent three independent results.

The test system of experiment [2] is human OCI-AML-3 AML xenograft tumor. In words: Subcutaneous OCI-AML-3 AML mouse xenograft tumor model. Type of experiment: in vivo, NOD SCID mice. Conditions: Compound 2 50 mg/kg orally q2d, Azacitidine 2 mg/kg i.v., Decitabine 1 mg/kg i.v.; for Relative tumor volume (RTV, Mean ± SEM): d15, vehicle 16.5 ± 4.1. The protocol: For subcutaneous model, OCI-AML-3 cells (1×10^6) are injected subcutaneously into the right side of the abdomen of 6- to 8-week-old mice. About 10 days after the cell inoculation, the mice are randomly divided into groups based on the primary tumor size achieving about 100-150 mm^3 of average tumor volume.
The tumor diameter is measured twice using a vernier caliper each week. The computational formula of the tumor volume (TV) is: TV=a×b^2/2. In the computational formula, a and b represent the length and width of the tumor measurement respectively. The computational formula of the relative tumor volume (RTV) is: RTV=VtN1. In the computational formula, V1 is the tumor volume when being grouped and administered, and Vt is the tumor volume when being measured at a certain day after the administration.
The tumor remission rate (%) is derived by dividing the number of SD (Stable Disease), PR (Partial response) and CR (Complete response) appearing in the tumor bearing mice after treatment by the total number of mice in the group×100%.
The synergistic analysis uses the following formula (reference can be made to Gould S E et al., Translational value of mouse models in oncology drug development, Nature medicine, 2015 21, 431-439): synergistic factor=((A/C)×(B/C))/(AB/C); A=RTV value of the A drug alone group; B=RTV value of the B drug alone group; C=RTV value of the vehicle control group, AB=RTV value of the AB combined group (Clarke R., Issues in experimental design and endpoint analysis in the study of experimental cytotoxic agents in vivo in breast cancer and other models[J], Breast Cancer Research & Treatment, 1997, 46 (2-3):255-278).
For subcutaneous model, OCI-AML-3 cells (1×10^6) are injected subcutaneously into the right side of the abdomen of 6- to 8-week-old mice. About 10 days after the cell inoculation, the mice are randomly divided into groups based on the primary tumor size achieving about 100-150 mm^3 of average tumor volume. Compound 2 is administered alone or in combination (50 mg/kg, is taken orally, every other day for 15 days) and Aza (2 mg/kg, intravenous injection each day for 7 days) or Dec (1 mg/kg, intravenous injection each day for 7 days). The tumor volume is measured twice using a vernier caliper each week and is represented by following formula in mm^3: V=0.5a×b^2; in the formula, a and b are the long diameter and short diameter of the tumor respectively. […] RTV=VtN1; wherein V1 and Vt are the average tumor volume on the first day (day 1) in the treatment, and the average tumor volume of a certain time point (day t) respectively.
Azacitidine is administered following 2 mg/kg, caudal vein injection, qd×7d, drug withdrawal 7 days, then qd×2 day regimens for seven days (corresponding to the number 68 regimen in table 7).

For experiment [3], the system named is human MOLM-13 (AML) xenograft tumor. Description: Systemic MOLM-13 AML mouse xenograft model. The format is in vivo, NOD SCID mice. Conditions: Compound 2 30 mg/kg q2d 21 days, Azacitidine 1.5 mg/kg qd seven days. The source says: The comparison among three or more groups uses one-way ANOVA. If the F value has a significant difference, multiple comparisons should be carried out after the ANOVA analysis. All data analysis uses SPSS 18.0. Prism (the sixth version) is used for graphing. Attune N×T flow cytometer (Thermo Fisher Scientific Inc.) is used for analyzing tumor infiltrating lymphocytes. Data acquisition and analysis use Analyst Software 1.6.3 work station (AB sciex, Ontario, Canada). For MOLM-13 systemic model, the death date of the last mouse is used for analyzing the median total survival and generating the Kaplan-Meier curve. Logarithmic rank test and Bonferroni multiple test are used for comparing the survival curves of different treatment groups.
For systemic AML model, six- to eight-week-old female NOD SCID mice are pretreated with cyclophosphamide (150 mg/kg, intraperitoneally) continuously for two days. Then the MOLM-13 systemic AML xenograft model is established by inoculating 1×10^7 cells into the caudal vein intravenously.
For systemic AML model, the six- to eight-week-old female NOD SCID mice are pretreated with cyclophosphamide (150 mg/kg, intraperitoneally) continuously for two days. Then the MOLM-13 systemic AML xenograft model is established by inoculating 1×10^7 cells into the caudal vein intravenously. Cells grow 3 days, then are randomly divided into groups for treatment of a single drug or drugs in combination using a carrier, compound 2 (50 mg/kg, is taken orally each day for 7 days), and Aza (1.5 mg/kg, intravenous injection each day for 7 days). In the treatment process and after the treatment is completed, the mice are monitored for the occurrence of hind leg paresis (HLP) or the abdominal swelling caused by disease progression, and a body weight loss >20%.
A systemic MOLM-13 mouse xenograft model is established, and the anti-leukemia effect of compound 2 following the administration regimen of 80 mg/kg dosage, orally (po), and once every two days (q2d) is evaluated in the model (corresponding to the number 57 regimen in table 7). The experiment has two groups, and 15 animals in each group, in one group, 5 animals are used for the analysis of the proportion of CD45+ AML cells, and the remaining 10 animals are used for recording the living condition of the mice. 18 days after the cell inoculation, according to the experimental regimen, 5 animals are selected randomly from each group, bone marrow and spleen are collected, the proportion of human CD45+ AML cells in bone marrow and spleen is analyzed using flow cytometry to evaluate the disease burden of animals.
Systemic tumor model is established by inoculating MOLM-13 tumor cells through caudal vein, the administration starts on the third day after the cell inoculation, and the day of the administration is defined as the first day. Compound 2 is administered following 30 mg/kg, q2d regimens for 21 days. Azacitidine is administered following 1.5 mg/kg, qd regimens for seven days (corresponding to the number 81 regimen in table 7). […]

The mark [4] stands for this setting: MOLM-13, DEC 100 nM, AZA 3 μM, 48 hours.

Regarding `Nc1ccn([C@@H]2O[C@H](CO)[C@@H](O)[C@@H]2O)c(=O)n1` [Cytarabine], the “expression of P53 and P21 proteins” value in experiment [1] (MOLM-13, compound 2 40 nM, RG-7388 40 nM, DEC 100 nM, AZA 3 μM, 48 hours) is “significant up-regulation effect on P21”. Further, the “γ-H2AX expression (DNA damage)” value in experiment [1] is on record as “increased expression of γ-H2AX”.
Regarding `Nc1ncn([C@H]2C[C@H](O)[C@@H](CO)O2)c(=O)n1` [Decitabine], in experiment [2], the “T/C value (%) (d15)” value is given as 64.9% and the “Relative tumor volume (RTV, Mean ± SEM)” value turned out to be 10.7 ± 1.7. The “expression of DNMT1” value in experiment [1] (setting [4]) is “almost completely eliminates DNMT1”. In addition, the “γ-H2AX expression (DNA damage)” value in experiment [1] is recorded as “increased expression of γ-H2AX”.
For `Nc1ncn([C@@H]2O[C@H](CO)[C@@H](O)[C@H]2O)c(=O)n1` [Azacitidine], the “Median survival” value in experiment [3] (vehicle 16 days) was found to be 24 days. In experiment [3] (versus vehicle), the “Prolonged survival” value was 8 days. Also, in experiment [2], the “T/C value (%) (d15)” value worked out at 56.6% and the “Relative tumor volume (RTV, Mean ± SEM)” value was 9.3 ± 3.2. Also, the “expression of DNMT1” value in experiment [1] (setting [4]) was “almost completely eliminates DNMT1”. For the same compound, in experiment [1], the “γ-H2AX expression (DNA damage)” value is given as “increased expression of γ-H2AX”.
